The structures appear in SMILES notation.

Common to all, as to format: cell-based
For test [1], the system named is Wnt activity (Sp5-Luc reporter, human Sp5 promoter with eight TCF/LEF binding sites) in SW480 colon carcinoma cells. Description: Screening assay for Wnt activity: Sp5-Luc reporter gene assay in SW480 cells. The conditions noted are these: for inhibition at 10 µM: read-out: percent inhibition at 10 μM (given for EC50 of >10 μM); for EC50: 10-point dose-response starting from 10 μM, overnight incubation. Put shortly:
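Luminescence (BrightGlo) read after overnight 37 °C exposure of Sp5-Luc SW480 reporter cells, 4,000/well in 1% FBS, to compound dosed 1:3 over 10 points from 10 μM with 0.1% DMSO. Values normalized to DMSO-only cells, fitted with variable-slope four-parameter model; where EC50 exceeds 10 μM, % inhibition at 10 μM reported.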
A general note: Reporter assays use an easily measured gene product as a stand-in for the process of interest.

For a further test, the system named is SW480 colon cancer cells. Description: Cell viability assay (CellTiter-Blue) in SW480 colon cancer cells. The conditions noted are these: Homo sapiens, 96 h; for inhibition at 10 µM: four days, CellTiter-Blue, read-out: percent inhibition at 10 μM (given for EC50 of >10 μM); for EC50: four days incubation, CellTiter-Blue cell viability. An outline of the steps: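 Four-day exposure of SW480 cells (~2×10^3/well) to compound from 10 μM down to 0.004 μM in 1:3 steps, in duplicate. Resorufin fluorescence from CellTiter-Blue after ~3 h served as the viability read-out. EC50 values came from nonlinear curve fits, with % inhibition at 10 μM given where EC50 >10 μM.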

In the next test the test system is IL-6 in THP-1 cells. Put plainly: Inhibition of IL-6 in LPS-stimulated THP-1 human monocyte cells (HTRF). The conditions noted are these: IL-6 HTRF; for EC50: 500 ng/mL LPS, 22 hours; for inhibition at 10 µM: LPS, read-out: percent inhibition in brackets (given for EC50 >10 μM). Put shortly: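 IL-6 was quantified by HTRF ratio after LPS (500 ng/mL, 22 h) stimulation of THP-1 monocytes pretreated 2 h with compound, 10-point 1:3 dilutions from 10 μM, 0.1% DMSO. Cells were held in 1% FBS for 24 h beforehand. Values normalised to DMSO; four-parameter EC50, or % inhibition at 10 μM above that.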
Background: Time-resolved FRET reads energy transfer from a long-lived donor to a nearby acceptor.

As a reminder, the inhibition is the percentage by which the read-out fell short of the control. As usually defined, the EC50 is the concentration at which the effect is half-maximal. A higher EC50 goes with a need for much substance. Turning to `CS(=O)(=O)NCc1cc(F)cc(-c2cncc3[nH]c(-c4n[nH]c5ccc(-c6cncnc6)nc45)nc23)c1` [Compound 475, N-(3-Fluoro-5-(2-(5-(pyrimidin-5-yl)-1H-pyrazolo[4,3-b]pyridin-3-yl)-3H-imidazo[4,5-c]pyridin-7-yl)benzyl)methanesulfonamide], the inhibition at 10 µM in test [1] worked out at 31.4%; in the test with SW480 colon cancer cells it was 0.9%; in the test with IL-6 in THP-1 cells, 0%. Moreover, the EC50 (in test [1]; in the test with SW480 colon cancer cells; in the test on IL-6 in THP-1 cells) was > 10 µM each time.

`Fc1cccc(-c2cncc3[nH]c(-c4n[nH]c5ccc(C6CCNCC6)nc45)nc23)c1` [Compound 477, 3-(7-(3-Fluorophenyl)-3H-imidazo[4,5-c]pyridin-2-yl)-5-(piperidin-4-yl)-1H-pyrazolo[4,3-b]pyridine]: the inhibition at 10 µM worked out at 20% in test [1], 1.8% in the test with SW480 colon cancer cells and 13% with IL-6 in THP-1 cells. Moreover, the EC50 (in test [1]; with SW480 colon cancer cells; in the test on IL-6 in THP-1 cells) was > 10 µM throughout.

With `Fc1cccc(-c2cncc3[nH]c(-c4n[nH]c5ccc(C6=CCNCC6)nc45)nc23)c1` [Compound 478, 3-(7-(3-Fluorophenyl)-3H-imidazo[4,5-c]pyridin-2-yl)-5-(1,2,3,6-tetrahydropyridin-4-yl)-1H-pyrazolo[4,3-b]pyridine], the inhibition at 10 µM in test [1] worked out at 11%; with SW480 colon cancer cells it was 0%; with IL-6 in THP-1 cells, 18.6%. For the same compound, the EC50 (in test [1]; with SW480 colon cancer cells; with IL-6 in THP-1 cells) was > 10 µM each time.

`Fc1cccc(-c2cncc3[nH]c(-c4n[nH]c5ccc(-c6cn[nH]c6)nc45)nc23)c1` [Compound 479, 3-(7-(3-Fluorophenyl)-3H-imidazo[4,5-c]pyridin-2-yl)-5-(1H-pyrazol-4-yl)-1H-pyrazolo[4,3-b]pyridine]: the inhibition at 10 µM in test [1] came to 9%; with SW480 colon cancer cells, 5.5%; in the test with IL-6 in THP-1 cells it was 15.7%. For the same compound, the half-maximal effective concentration (EC50) (in test [1]; in the test with SW480 colon cancer cells; in the test on IL-6 in THP-1 cells) was > 10 µM in each case.

Take `Cn1cc(-c2ccc3[nH]nc(-c4nc5c(-c6cccc(F)c6)cncc5[nH]4)c3n2)cn1` [Compound 480, 3-(7-(3-Fluorophenyl)-3H-imidazo[4,5-c]pyridin-2-yl)-5-(1-methyl-1H-pyrazol-4-yl)-1H-pyrazolo[4,3-b]pyridine]: the inhibition at 10 µM in test [1] amounted to 13%; in the test with SW480 colon cancer cells, 1.7%; in the test with IL-6 in THP-1 cells it was 9.7%. The EC50 (in test [1]; in the test on SW480 colon cancer cells; with IL-6 in THP-1 cells) was > 10 µM throughout.

On to `Cc1ncc(-c2ccc3[nH]nc(-c4nc5c(-c6cccc(F)c6)cncc5[nH]4)c3n2)n1C` [Compound 481, 5-(1,2-Dimethyl-1H-imidazol-5-yl)-3-(7-(3-fluorophenyl)-3H-imidazo[4,5-c]pyridin-2-yl)-1H-pyrazolo[4,3-b]pyridine], for which the inhibition at 10 µM in test [1] turned out to be 46%; with IL-6 in THP-1 cells, 48.3%. Moreover, the 50% effective concentration (EC50) in test [1] is > 10 µM; in the test on SW480 colon cancer cells, 2.3 µM; in the test with IL-6 in THP-1 cells, > 10 µM.

`NC1CN(c2cncc(-c3ccc4[nH]nc(-c5nc6c(-c7cccc(F)c7)cncc6[nH]5)c4n3)n2)C1` [Compound 482, 1-(6-(3-(7-(3-Fluorophenyl)-3H-imidazo[4,5-c]pyridin-2-yl)-1H-pyrazolo[4,3-b]pyridin-5-yl)pyrazin-2-yl)azetidin-3-amine]: the inhibition at 10 µM is 21% in test [1], 3.8% with SW480 colon cancer cells and 40.8% with IL-6 in THP-1 cells. Also, the EC50 (in test [1]; in the test on SW480 colon cancer cells; in the test on IL-6 in THP-1 cells) was > 10 µM each time.

For `Fc1cccc(-c2cncc3[nH]c(-c4n[nH]c5ccc(-c6cncc(OC7CCNCC7)c6)nc45)nc23)c1` [Compound 484, 3-(7-(3-Fluorophenyl)-3H-imidazo[4,5-c]pyridin-2-yl)-5-(5-(piperidin-4-yloxy)pyridin-3-yl)-1H-pyrazolo[4,3-b]pyridine], the results for the inhibition at 10 µM (in test [1]; in the test on SW480 colon cancer cells; in the test with IL-6 in THP-1 cells) were 24%, 11.7% and 11.3%, respectively. Moreover, the EC50 (in test [1]; in the test on SW480 colon cancer cells; with IL-6 in THP-1 cells) was > 10 µM throughout.

As for `Oc1cncc(-c2ccc3[nH]nc(-c4nc5c(-c6cccc(F)c6)cncc5[nH]4)c3n2)c1` [Compound 489, 5-(3-(7-(3-Fluorophenyl)-3H-imidazo[4,5-c]pyridin-2-yl)-1H-pyrazolo[4,3-b]pyridin-5-yl)pyridin-3-ol], the inhibition at 10 µM in test [1] came out at 27%; in the test with SW480 colon cancer cells, 3.7%; in the test on IL-6 in THP-1 cells, 43.3%. In addition, the EC50 (in test [1]; in the test with SW480 colon cancer cells; in the test on IL-6 in THP-1 cells) was > 10 µM each time.

Turning to `Fc1cccc(-c2cncc3[nH]c(-c4n[nH]c5ccc(-c6cnccn6)nc45)nc23)c1` [Compound 492, 3-(7-(3-Fluorophenyl)-3H-imidazo[4,5-c]pyridin-2-yl)-5-(pyrazin-2-yl)-1H-pyrazolo[4,3-b]pyridine], the values for the inhibition at 10 µM (in test [1]; in the test on SW480 colon cancer cells; with IL-6 in THP-1 cells) were 13%, 7.5% and 24.5%, respectively. Besides, the EC50 (in test [1]; in the test with SW480 colon cancer cells; in the test on IL-6 in THP-1 cells) was > 10 µM each time.

Consider `c1cncc(-c2cncc3[nH]c(-c4n[nH]c5ccc(-c6cncc(OC7CCCCC7)c6)nc45)nc23)c1` [Compound 531, 5-(5-(Cyclohexyloxy)pyridin-3-yl)-3-(7-(pyridin-3-yl)-3H-imidazo[4,5-c]pyridin-2-yl)-1H-pyrazolo[4,3-b]pyridine], for which the inhibition at 10 µM in test [1] turned out to be 24.3%; with SW480 colon cancer cells, 15.5%. The EC50 in test [1] was > 10 µM; with SW480 colon cancer cells, > 10 µM; in the test on IL-6 in THP-1 cells it was 0.371 µM.

For `Oc1cncc(-c2ccc3[nH]nc(-c4nc5c(-c6cccnc6)cncc5[nH]4)c3n2)c1` [Compound 537, 5-(3-(7-(Pyridin-3-yl)-3H-imidazo[4,5-c]pyridin-2-yl)-1H-pyrazolo[4,3-b]pyridin-5-yl)pyridin-3-ol], the inhibition at 10 µM in test [1] came to 9.9%; with SW480 colon cancer cells, 7.6%. Besides, the EC50 in test [1] was > 10 µM; with SW480 colon cancer cells it was > 10 µM; in the test with IL-6 in THP-1 cells, 0.414 µM.

For `c1cc(-c2cncc3[nH]c(-c4n[nH]c5ccc(-c6cncc(OC7CCNCC7)c6)nc45)nc23)ccn1` [Compound 548, 5-(5-(Piperidin-4-yloxy)pyridin-3-yl)-3-(7-(pyridin-4-yl)-3H-imidazo[4,5-c]pyridin-2-yl)-1H-pyrazolo[4,3-b]pyridine], the results for the inhibition at 10 µM (in test [1]; in the test with SW480 colon cancer cells; in the test on IL-6 in THP-1 cells) were 16.1%, 10.3% and 22.6%, respectively. The EC50 (in test [1]; with SW480 colon cancer cells; in the test with IL-6 in THP-1 cells) was > 10 µM throughout.

Take `c1ccc(COc2cncc(-c3ccc4[nH]nc(-c5nc6c(-c7ccncc7)cncc6[nH]5)c4n3)c2)cc1` [Compound 554, 5-(5-(Benzyloxy)pyridin-3-yl)-3-(7-(pyridin-4-yl)-3H-imidazo[4,5-c]pyridin-2-yl)-1H-pyrazolo[4,3-b]pyridine]: the inhibition at 10 µM in test [1] worked out at 0%; with SW480 colon cancer cells, 0%; in the test with IL-6 in THP-1 cells it was 50.3%. The EC50 (in test [1]; in the test with SW480 colon cancer cells; in the test with IL-6 in THP-1 cells) was > 10 µM in each case.

Take `c1cc(-c2cncc3[nH]c(-c4n[nH]c5ccc(-c6cnccn6)nc45)nc23)ccn1` [Compound 556, 5-(Pyrazin-2-yl)-3-(7-(pyridin-4-yl)-3H-imidazo[4,5-c]pyridin-2-yl)-1H-pyrazolo[4,3-b]pyridine]: the inhibition at 10 µM in test [1] came out at 9.5%; in the test with SW480 colon cancer cells it was 13.7%; in the test on IL-6 in THP-1 cells it was 0%. For the same compound, the concentration for a half-maximal effect (EC50) (in test [1]; with SW480 colon cancer cells; in the test on IL-6 in THP-1 cells) was > 10 µM throughout.

As for `Cn1cc(-c2ccc3[nH]nc(-c4nc5c(-c6cccs6)cncc5[nH]4)c3n2)cn1` [Compound 656, 5-(1-Methyl-1H-pyrazol-4-yl)-3-(7-(thiophen-2-yl)-3H-imidazo[4,5-c]pyridin-2-yl)-1H-pyrazolo[4,3-b]pyridine], the values for the inhibition at 10 µM (in test [1]; with SW480 colon cancer cells; in the test with IL-6 in THP-1 cells) were 3%, 1.3% and 14.8%, respectively. Further, the EC50 (in test [1]; in the test with SW480 colon cancer cells; with IL-6 in THP-1 cells) was > 10 µM throughout.

For `CN(C)CCOc1cncc(-c2ccc3[nH]nc(-c4nc5c(-c6cccs6)cncc5[nH]4)c3n2)c1` [Compound 663, N,N-Dimethyl-2-((5-(3-(7-(thiophen-2-yl)-3H-imidazo[4,5-c]pyridin-2-yl)-1H-pyrazolo[4,3-b]pyridin-5-yl)pyridin-3-yl)oxy)ethan-1-amine], the inhibition at 10 µM is 46.7% in test [1], 15.5% with SW480 colon cancer cells and 43.8% in the test with IL-6 in THP-1 cells. The EC50 (in test [1]; with SW480 colon cancer cells; in the test on IL-6 in THP-1 cells) was > 10 µM each time.

Source of the values: US10188634B2, “3-(3H-imidazo[4,5-C]pyridin-2-yl)-1 H-pyrazolo[4,3-B]pyridines and therapeutic uses thereof” (Samumed, LLC, priority 2015, dated 2019).
